Counter-ions that a name gives are not always drawn.
What was measured:
trachea = experiment: Effect on trachea in vivo: inhibition of histamine-induced tracheal contraction (modified Konzett-Rössler method); details: Cavia porcellus, iv, 0.05 h; compound 1 mg/kg through the femoral vein, histamine 20 µg/kg through the femoral vein 3 minutes later; anesthetized male guinea pigs; compounds used as hydrochloride; 3 animals per group; read-out: Inhibition of tracheal con-traction
Text: Further, the inhibiting action of the compound of the present invention on the histamine-induced contraction of the trachea of a guinea pig was examined by in vivo experiment. As a result, the in vivo bronchodilation action was confirmed.
According to a modified method of Konzett-Rössler method [see J. Martinez et al, Bronchial Arterial Injections, vol. 33, 295, (1961); Masaaki Takai et al, Oyo Yakuri (Applied Pharmacology), vol. 17, p.345, (1979)], effect of the compounds of the present invention on trachea in vivo was examined. Of compounds 3, 4, 30, 31, 36, 38, 48, 54 and 55, which were used herein, compounds other than acid addition salts were individually subjected to testing in the form of a hydrochloride which was obtained in the same manner as described in Example 61. Urethane was intraperitoneally administered to male guinea pigs weighing 350 to 600 g (Hartley strain, Kuroda Junkei Dobutsu) in an amount of 1.5 g/kg of body weight to anesthetize the animals. Then, cannulae were inserted into the trachea and femoral vein of each animal under urethane anesthesia and fixed. The inserted tracheal cannula was connected to a respirator for small animal (model 1683, manufactured by Harvard Co., Ltd.) and a pneumotachometer (model MHF-1200, manufactured by Nihon Kohden Corp.) through a bottle containing water, the water surface of which was adjusted to a level which is 10 cm high from the bottom, and a respiratory volume was determined.
Each of the above-mentioned compounds of the present invention was administered to guinea pigs through the femoral vein in an amount of 1 mg/kg of body weight. After 3 minutes from the administration, histamine was administered to the same guinea pigs through the femoral vein in an amount of 20 µg/kg of body weight, to thereby induce contraction of trachea and the inhibition of the histamine-induced tracheal contraction by each of the above-described compounds of the present invention was determined. For comparison, the inhibition of histamine-induced tracheal contraction by each of aminophylline, comparative compound (1) and comparative compound (2) was determined in substantially the same manner as described above. As a solvent for each compound, physiological saline was used. The number of the guinea pigs tested in each group was 3.

[1] = tested on: tracheal specimens excised from guinea pigs; experiment: Inhibitory effect on KCl-induced contraction of tracheal specimens excised from guinea pigs (Magnus tube); format: cell-based; details: Cavia porcellus; dose required for relaxing KCl-induced contraction to 50 %; final KCl concentration: 20 mM; 37 °C; compounds other than acid addition salts used as hydrochloride; 3 specimens per group; read-out: ED₅₀ Effect on KCl-induced contraction
Protocol: (§1) The bronchial smooth muscle-relaxing action of the sulfonamide derivative of the present invention was evaluated by the effect on suppression of KCl-induced contraction and PGF2α-induced contraction of bronchial specimens excised from guinea pigs.
According to a method in which tracheal specimens excised from guinea pigs were used (Takagi and Ozawa, "Yakubutsugaku Jikken (Experiments in Pharmacology)", pp.100-102, 1960, published by Nanzando Japan; and Fujiwara and Shibata, "Yakurigaku Kiso Jikenho (Methods of Fundamental Experiments in Pharmacology)" pp.131-134, 1982, published by Kyourin, Japan), relaxing effect of sulfonamide derivatives of the present invention on bronchial smooth muscle was examined. Of compounds (1) to (69) shown herein, compounds other than acid addition salts were individually used in the form of a hydrochloride which was obtained by the same method as described in Example 61.
From male guinea pigs weighing 350 to 500 g (Hartley strain, Kuroda Junkei Dobutsu), tracheas were excised and each of the excised tracheal specimens was hung in 20 ml of a Magnus tube filled with Krebs-Henseleit solution under isotonic conditions and the solution temperature was kept at 37 °C. An aqueous KCl solution was dropwise added into the Magnus tube (final KCl concentration: 20 mM) to contract the tracheal specimen. After the KCl-induced contraction became stable, each of the compounds of the present invention was dissolved in distilled water or physiological saline, and the compound solution was cumulatively added into the Magnus tube. The relaxing effect of each of the compounds of the present invention on contracted tracheal specimens was evaluated and a dose-response curve was obtained.
A dose required for relaxing KCl-induced contraction to 50 %, i.e., ED₅₀ was calculated from the dose-response curve. For comparison, the same method as described above was repeated except that aminophylline was used, to thereby determine an ED₅₀. The number of tracheal specimens in each group was 3.

[2] = tested on: tracheal specimens excised from guinea pigs; experiment: Inhibitory effect on PGF2α-induced contraction of tracheal specimens excised from guinea pigs (Magnus tube); format: cell-based; details: Cavia porcellus, dose required for relaxing PGF2α-induced contraction to 50 %; PGF2α final concentration: 1 µm; compounds used as hydrochloride; 3 specimens per group; read-out: PGF2α-induced contraction ED50
Protocol: as §1
Tracheal specimens excised from male guinea pigs weighing 350 to 500 g (Hartley strain, Kuroda Junkei Dobutsu) were contracted in substantially the same manner as in Application Example 1 except that PGF2α (final concentration: 1 µm) was used instead of KCl. After the contraction of the tracheal specimens became stable, each of the compounds (hydrochloride) of the present invention was dissolved in distilled water or physiological saline, and the compound solution was cumulatively added into the Magnus tube in the same manner as in Application Example 1. The relaxing effect of each of the compounds of the present invention on the contracted specimens was evaluated and a dose-response curve was obtained. The dose required for relaxing PGF2α-induced contraction to 50 %, i.e., ED₅₀ was calculated form the dose-response curve. Of compounds 3, 4, 30, 31, 36, 38, 48, 54 and 55, which were imdividually used herein, compounds other than acid addition salts were used in the form of a hydrochloride which was obtained in the same manner as described in Example 61. For comparison, the same procedure as described above was repeated except that aminophylline, comparative compound (1) and comparative compound (2) were individually used instead of the compound of the present invention, to obtain an ED₅₀. The number of specimens in each group was 3.

| Structure (SMILES) | EC50 [1] [µM] | EC50 [2] [µM] | inhibition in vivo at 1 mg/kg (trachea) [%] |
| --- | --- | --- | --- |
| O=S(=O)(NCCNCc1ccc2c(c1)OCO2)c1cccc2c(O)nccc12 [(4), N-[2-(3,4-methylenedioxybenzylamino)ethyl]-1-hydroxy-5-isoquinolinesulfonamide hydrochloride] | 10 | 5 | 25 |
| O=S(=O)(NCCN1CCN(Cc2ccc3c(c2)OCO3)CC1)c1cccc2cnccc12 [(30), 1-(5-isoquinolinesulfonylaminoethyl)-4-(3,4-methylenedioxybenzyl)piperazine] | 16 | 43 | – |
| O=S(=O)(NCCN1CCCN(Cc2ccc3c(c2)OCO3)CC1)c1cccc2cnccc12 [(31), 1-(5-isoquinolinesulfonylaminoethyl)-4-(3,4-methylenedioxybenzyl)homopiperazine] | 13 | 31 | – |
| O=S(=O)(NCCN1CCCN(Cc2ccc3c(c2)OCO3)CC1)c1cccc2ncccc12 [(45), 1-(5-quinolinesulfonylaminoethyl)-4-(3,4-methylenedioxybenzyl)homopiperazine] | 84 | – | – |
| CCOc1ccc(S(=O)(=O)NCCN2CCCN(Cc3ccc(Cl)cc3)CC2)c2cccnc12 [(50), 1-(8-ethoxy-5-quinolinesulfonylaminoethyl)-4-(4-chlorobenzyl)homopiperazine] | 81 | – | – |
| O=S(=O)(c1ccc(Cl)c2ncccc12)N1CCCNCC1 [(54), 1-(8-chloro-5-quinolinesulfonyl)homopiperazine] | 38 | 65 | 30 |
| CCOc1ccc(S(=O)(=O)N2CCCNCC2)c2cccnc12 [(55), 1-(8-ethoxy-5-quinolinesulfonyl)homopiperazine] | 45 | 71 | 23 |
| O=S(=O)(c1ccc(Cl)c2ncccc12)N1CCNCC1 [(56), 1-(8-chloro-5-quinolinesulfonyl)piperazine] | 49 | – | – |
| O=S(=O)(c1cccc2ncccc12)N1CCCNCC1 [(58), 1-(5-quinolinesulfonyl)homopiperazine] | 79 | – | – |
| O=S(=O)(c1cccc2ncccc12)N1CCNCC1 [(59), 1-(5-quinolinesulfonyl)piperazine] | 90 | – | – |
| COc1ccc(CCNC(C)CNS(=O)(=O)c2ccc(Cl)c3ncccc23)cc1OC (centres unmarked) [(60), N-[2-(3,4-dimethoxyphenethylamino)-2-methylethyl]-8-chloro-5-quinolinesulfonamide] | 110 | – | – |
| Cn1c(=O)c2[nH]cnc2n(C)c1=O [Aminophylline, aminophylline, reference compound] | – | > 200 | 7 |
| CCCCCCN(CCN)S(=O)(=O)c1cccc2cnccc12 [Comparative compound (1), N-(2-aminoethyl)-N-hexyl-5-isoquinolinesulfonamide hydrochloride, reference compound] | – | 101 | 9 |
| NC1CCCN(S(=O)(=O)c2cccc3cnccc23)C1 (centres unmarked) [Comparative compound (2), 1-(5-isoquinolinesulfonyl)-3-aminopiperidine hydrochloride, reference compound] | – | 93 | 12 |
| O=S(=O)(NCCNCc1ccc2c(c1)OCO2)c1cccc2ncccc12 [Compound (27), N-[2-(3,4-methylenedioxybenzylamino)ethyl]-5-quinolinesulfonamide] | 86 | – | – |
| CCOc1ccc(S(=O)(=O)NCCN2CCCNCC2)c2cccnc12 [Compound (46), 1-(8-ethoxy-5-quinolinesulfonylaminoethyl) homopiperazine] | 51 | – | – |

Second part, led by results:

| EC50 [1] [µM] | EC50 [2] [µM] | Structure (SMILES) | inhibition in vivo at 1 mg/kg (trachea) [%] |
| --- | --- | --- | --- |
| 5.2 | 23 | O=S(=O)(NCCNCc1ccc2c(c1)OCO2)c1cccc2cnccc12 [(3), N-[2(3,4-methylenedioxybenzylamino)ethyl]-5-isoquinolinesulfonamide] | 36 |
| 43 | 91 | O=S(=O)(NCCN1CCCNCC1)c1ccc(Cl)c2ncccc12 [(36), 1-(8-chloro-5-quinolinesulfonylaminoethyl)homopiperazine] | – |
| 26 | 74 | O=S(=O)(NCCN1CCCN(Cc2ccc3c(c2)OCO3)CC1)c1ccc(Cl)c2ncccc12 [(38), 1-(8-chloro-5-quinolinesulfonylaminoethyl)-4-(3,4-methylenedioxybenzyl)homopiperazine] | – |
| 91 | – | O=S(=O)(NCCN1CCCNCC1)c1cccc2ncccc12 [(44), 1-(5-quinolinesulfonylaminoethyl)homopiperazine] | – |
| 60 | – | CCOc1ccc(S(=O)(=O)NCCN2CCNCC2)c2cccnc12 [(47), 1-(8-ethoxy-5-quinolinesulfonylaminoethyl) piperazine] | – |
| 37 | 82 | CCOc1ccc(S(=O)(=O)NCCN2CCCN(Cc3ccc4c(c3)OCO4)CC2)c2cccnc12 [(48), 1-(8-ethoxy-5-quinolinesulfonylaminoethyl)-4-(3,4-methylenedioxybenzyl)homopiperazine] | 33 |
| 46 | – | CCOc1ccc(S(=O)(=O)NCCN2CCN(Cc3ccc4c(c3)OCO4)CC2)c2cccnc12 [(49), 1-(8-ethoxy-5-quinolinesulfonylaminoethyl)-4-(3,4-methylenedioxybenzyl)piperazine] | – |
| 85 | – | CCOc1ccc(S(=O)(=O)NCCN2CCN(Cc3ccc(Cl)cc3)CC2)c2cccnc12 [(51), 1-(8-ethoxy-5-quinolinesulfonylaminoethyl)-4-(4-chlorobenzyl)piperazine] | – |
| 102 | – | CCOc1ccc(S(=O)(=O)NCCN2CCCN(CCc3ccc(OC)c(OC)c3)CC2)c2cccnc12 [(52), 1-(8-ethoxy-5-quinolinesulfonylaminoethyl)-4-(3,4-dioxyphenethyl)homopiperazine] | – |
| 120 | – | CCOc1ccc(S(=O)(=O)NCCN2CCN(CCc3ccc(OC)c(OC)c3)CC2)c2cccnc12 [(53), 1-(8-ethoxy-5-quinolinesulfonylaminoethyl)-4-(3,4-dimethoxyphenethyl)piperazine] | – |
| 57 | – | CCOc1ccc(S(=O)(=O)N2CCNCC2)c2cccnc12 [(57), 1-(8-ethoxy-5-quinolinesulfonyl)piperazine] | – |

From patent EP0471841A1, “SULFONAMIDE DERIVATIVE AND PHARMACEUTICAL COMPOSITION CONTAINING THE SAME” (Asahi Kasei Kogyo Kabushiki Kaisha, priority 1990, dated 1991)
